Reference: PubChem BioAssay AID248 (DTP/NCI, 2004)
Values joined by “and” are separate entries in the source; they are usually repeats but may differ in a detail not shown here. Equal values may be shown once. Inconclusive results and toxic doses are left out. Cut-off read from the data, not from the text of the source: active = T/C of 150% or more; inactive = T/C below 125%.

Test system: L1210 leukemia ip in BDF1 mice, survival T/C
Experiment: NCI In Vivo Anticancer Drug Screen. Data for tumor model L1210 Leukemia (intraperitoneal) in B6D2F1 (BDF1) mice
Conditions: endpoint: mean survival time, higher = longer survival
Procedure, shortened: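 Tumor was transplanted into mice, which were then dosed with test compound or vehicle alone. Survival was recorded for each group, and the treated figure was expressed relative to the control figure.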

[1] = dose: 200.0 mg/kg/injection, schedule: Q01DX009 (ip), vehicle: saline with Tween-80
[2] = dose: 100.0 mg/kg/injection, schedule: Q04DX002 (ip), vehicle: Klucel (hydroxypropylcellulose) (HPC)
[3] = dose: 200.0 mg/kg/injection, schedule: Q04DX002 (ip), vehicle: Klucel (hydroxypropylcellulose) (HPC)
[4] = dose: 50.0 mg/kg/injection, schedule: Q04DX003 (ip), vehicle: saline

Measured: T/C

O=NN(CCCl)C(=O)Nc1ccc(Cn2cnc3c(=O)[nH]cnc32)cc1
active: dose: 5.0 mg/kg/injection, schedule: Q01DX009 (ip), vehicle: other 150 % of control | dose: 7.0 mg/kg/injection, schedule: Q01DX009 (ip), vehicle: other 155 % of control | dose: 14.0 mg/kg/injection, schedule: Q01DX009 (ip), vehicle: other 162 % of control | dose: 18.0 mg/kg/injection, schedule: Q01DX001 (ip), vehicle: other 161 % of control | dose: 31.0 mg/kg/injection, schedule: Q01DX001 (ip), vehicle: other 155 % of control | dose: 36.0 mg/kg/injection, schedule: Q01DX001 (ip), vehicle: other 185 % of control | dose: 45.0 mg/kg/injection, schedule: Q01DX001 (ip), vehicle: other 196 % of control | dose: 46.0 mg/kg/injection, schedule: Q01DX001 (ip), vehicle: other 169 % of control | dose: 62.0 mg/kg/injection, schedule: Q01DX001 (ip), vehicle: other 169 % of control | dose: 63.0 mg/kg/injection, schedule: Q01DX001 (ip), vehicle: other 164 % of control
inactive: dose: 28.0 mg/kg/injection, schedule: Q01DX009 (ip), vehicle: other 88 % of control | dose: 125.0 mg/kg/injection, schedule: Q01DX001 (ip), vehicle: other 101 % of control

O=C(O)c1ccc(NCCO)cc1
inactive: dose: 75.0 mg/kg/injection, schedule: Q01DX009 (ip), vehicle: Klucel (hydroxypropylcellulose) (HPC) 102 % of control | dose: 150.0 mg/kg/injection, schedule: Q01DX009 (ip), vehicle: Klucel (hydroxypropylcellulose) (HPC) 90 % of control | dose: 300.0 mg/kg/injection, schedule: Q01DX009 (ip), vehicle: Klucel (hydroxypropylcellulose) (HPC) 90 % of control

CC(=O)Nc1c([N+](=O)[O-])cc2c3c(cccc13)C=C2
inactive: [1] 96 % of control | dose: 400.0 mg/kg/injection, schedule: Q01DX009 (ip), vehicle: saline with Tween-80 96 % of control

O=S1(=O)C=C(Br)C1
inactive: [2] 94 % of control and 106 % of control | [3] 106 % of control

CC(=O)Oc1ccc(Cl)cc1/C=C\C=O
inactive: dose: 100.0 mg/kg/injection, schedule: Q01DX001 (ip), vehicle: saline 100 % of control | dose: 200.0 mg/kg/injection, schedule: Q01DX001 (ip), vehicle: saline 101 % of control

Cc1cc([N+](=O)[O-])c(Cl)cc1N
inactive: dose: 100.0 mg/kg/injection, schedule: Q04DX003 (ip), vehicle: gum acacia 93 % of control | dose: 200.0 mg/kg/injection, schedule: Q04DX003 (ip), vehicle: gum acacia 95 % of control | dose: 400.0 mg/kg/injection, schedule: Q04DX003 (ip), vehicle: gum acacia 95 % of control

COc1ccc(OCC(=O)N2CCCCC2)cc1
inactive: dose: 100.0 mg/kg/injection, schedule: Q01DX009 (ip), vehicle: carboxymethylcellulose (CMC) 92 % of control | dose: 200.0 mg/kg/injection, schedule: Q01DX009 (ip), vehicle: carboxymethylcellulose (CMC) 106 % of control

Cc1ccc2nc3nc(-c4ccccc4)c(-c4ccccc4)nc3nc2c1
inactive: dose: 75.0 mg/kg/injection, schedule: Q01DX001 (ip), vehicle: other 93 % of control | dose: 150.0 mg/kg/injection, schedule: Q01DX001 (ip), vehicle: other 94 % of control | dose: 300.0 mg/kg/injection, schedule: Q01DX001 (ip), vehicle: other 89 % of control

C[N+](C)(C)CCCCCCCCCC[N+](C)(C)CCCCCCCCCC[N+](C)(C)CCCCCCCCCC[N+](C)(C)C
inactive: dose: 25.0 micrograms/kg/injection, schedule: Q04DX003 (ip), vehicle: Klucel (hydroxypropylcellulose) (HPC) 96 % of control | dose: 50.0 micrograms/kg/injection, schedule: Q04DX003 (ip), vehicle: Klucel (hydroxypropylcellulose) (HPC) 97 % of control | dose: 100.0 micrograms/kg/injection, schedule: Q04DX003 (ip), vehicle: Klucel (hydroxypropylcellulose) (HPC) 97 % of control

O=C1c2ccccc2C(=O)N1CCOCCOCCOCCN1C(=O)c2ccccc2C1=O
inactive: dose: 50.0 mg/kg/injection, schedule: Q01DX009 (ip), vehicle: saline with Tween-80 97 % of control | dose: 100.0 mg/kg/injection, schedule: Q01DX009 (ip), vehicle: saline with Tween-80 91 % of control | [2] 102 % of control | [1] 94 % of control | [3] 94 % of control | dose: 400.0 mg/kg/injection, schedule: Q04DX002 (ip), vehicle: Klucel (hydroxypropylcellulose) (HPC) 102 % of control

COc1ccc(Sc2ccccc2N)c([N+](=O)[O-])c1
inactive: dose: 100.0 mg/kg/injection, schedule: Q04DX003 (ip), vehicle: Klucel (hydroxypropylcellulose) (HPC) 100 % of control | dose: 200.0 mg/kg/injection, schedule: Q04DX003 (ip), vehicle: Klucel (hydroxypropylcellulose) (HPC) 97 % of control | dose: 400.0 mg/kg/injection, schedule: Q04DX003 (ip), vehicle: Klucel (hydroxypropylcellulose) (HPC) 92 % of control

CC1C=CC(c2ccccc2)C2C(=O)OC(=O)C12 (stereo not given)
inactive: dose: 50.0 mg/kg/injection, schedule: Q01DX009 (ip), vehicle: Klucel (hydroxypropylcellulose) (HPC) 111 % of control | dose: 100.0 mg/kg/injection, schedule: Q01DX009 (ip), vehicle: Klucel (hydroxypropylcellulose) (HPC) 101 % of control

N#CC1CCCC1=O (stereo not given)
inactive: dose: 5.0 mg/kg/injection, schedule: Q01DX009 (ip), vehicle: saline 97 % of control | dose: 10.0 mg/kg/injection, schedule: Q01DX009 (ip), vehicle: saline 101 % of control | dose: 20.0 mg/kg/injection, schedule: Q01DX009 (ip), vehicle: saline 106 % of control

CCCSc1ccc(N2C(N)=NC(N)=NC2(C)C)cc1
inactive: dose: 12.5 mg/kg/injection, schedule: Q01DX001 (ip), vehicle: saline 98 % of control | dose: 12.5 mg/kg/injection, schedule: Q04DX003 (ip), vehicle: saline 98 % of control | dose: 18.75 mg/kg/injection, schedule: Q01DX009 (ip), vehicle: saline with Tween-80 101 % of control | dose: 25.0 mg/kg/injection, schedule: Q01DX001 (ip), vehicle: saline 108 % of control | dose: 25.0 mg/kg/injection, schedule: Q04DX003 (ip), vehicle: saline 93 % of control | dose: 37.5 mg/kg/injection, schedule: Q01DX009 (ip), vehicle: saline with Tween-80 96 % of control | dose: 50.0 mg/kg/injection, schedule: Q01DX001 (ip), vehicle: saline 108 % of control | [4] 104 % of control | dose: 75.0 mg/kg/injection, schedule: Q04DX003 (ip), vehicle: saline 97 % of control

Oc1c(CN2CCCC2)cc(Nc2cc(/C=C/c3ccc(Cl)cc3)nc(/C=C\c3ccc(Cl)cc3)n2)cc1CN1CCCC1
inactive: dose: 1.0 mg/kg/injection, schedule: Q01DX009 (ip), vehicle: Klucel (hydroxypropylcellulose) (HPC) 110 % of control | dose: 3.0 mg/kg/injection, schedule: Q01DX009 (ip), vehicle: Klucel (hydroxypropylcellulose) (HPC) 98 % of control | dose: 6.0 mg/kg/injection, schedule: Q01DX009 (ip), vehicle: Klucel (hydroxypropylcellulose) (HPC) 101 % of control | dose: 12.0 mg/kg/injection, schedule: Q01DX009 (ip), vehicle: Klucel (hydroxypropylcellulose) (HPC) 91 % of control | dose: 12.0 mg/kg/injection, schedule: Q04DX003 (ip), vehicle: saline 88 % of control | [4] 88 % of control

CC(C)(O)/C=C/C(=O)[C@](C)(O)[C@H]1[C@H](O)C[C@@]2(C)[C@@H]3CC=C4[C@@H](C[C@H](O)C(=O)C4(C)C)[C@]3(C)C(=O)C[C@]12C
inactive: dose: 0.5 mg/kg/injection, schedule: Q01DX001 (sc), vehicle: steriod suspending solution 102 % of control | dose: 1.0 mg/kg/injection, schedule: Q01DX001 (sc), vehicle: steriod suspending solution 98 % of control

O=C(C(=O)N1CC2OC2C1)N1CC2OC2C1 (stereo not given)
active: dose: 200.0 mg/kg/injection, schedule: Q04DX002 (ip), vehicle: saline with Tween-80 239 % of control
inactive: dose: 29.0 mg/kg/injection, schedule: Q04DX002 (ip), vehicle: saline with Tween-80 95 % of control | dose: 39.0 mg/kg/injection, schedule: Q01DX001 (ip), vehicle: saline with Tween-80 98 % of control | dose: 44.0 mg/kg/injection, schedule: Q04DX002 (ip), vehicle: saline with Tween-80 100 % of control | dose: 59.0 mg/kg/injection, schedule: Q01DX001 (ip), vehicle: saline with Tween-80 102 % of control | dose: 67.0 mg/kg/injection, schedule: Q04DX002 (ip), vehicle: saline with Tween-80 100 % of control | dose: 88.0 mg/kg/injection, schedule: Q01DX001 (ip), vehicle: saline with Tween-80 97 % of control | dose: 133.0 mg/kg/injection, schedule: Q01DX001 (ip), vehicle: saline with Tween-80 97 % of control | dose: 150.0 mg/kg/injection, schedule: Q04DX002 (ip), vehicle: saline with Tween-80 102 % of control | dose: 200.0 mg/kg/injection, schedule: Q01DX001 (ip), vehicle: saline with Tween-80 97 % of control | dose: 225.0 mg/kg/injection, schedule: Q04DX002 (ip), vehicle: saline with Tween-80 105 % of control | dose: 300.0 mg/kg/injection, schedule: Q01DX001 (ip), vehicle: saline with Tween-80 100 % of control
